Patent US7399492B2, “Composition and method for issue repair and regeneration” (priority 2001, dated 2008)

Columns and labels:
[1] = test system: Salmonella strain TA102 base substitutive mutation strain; format: cell-based; conditions: Positive Control/plate
Description: To test mutagenicity of the content of GI Capsules, Ames tests were conducted on four Salmonella strains: TA97a, TA98 frameshift mutation strain, TA100, and TA102 base substitutive mutation strain. Ames (1983) Mutation Research 113:173-215. Five genetic characteristics of these four strains were determined to meet the requirement for the testing. The content of GI Capsules at five concentrations was tested: 5 mg/plate, 2.5 mg/plate, 1.0 mg/plate, 0.5 mg/plate, 0.1 mg/plate. The negative control was PBS. […]

Kunming mice [2] = conditions: positive control 35 mg/kg
Kunming mice [3] = conditions: positive control 35 mg/kg; remark: listed apart in the source
Salmonella strain TA100 = assay: Ames test, strain TA100; format: cell-based; conditions: Positive Control/plate, 2 ul
[4] = test system: Kunming mice constipated by diphenoxylate; assay: Laxative effects on mouse models for constipation (diphenoxylate); format: in vivo; conditions: Positive control group, diphenoxylate 50 mg/kg alone
Description: (§1) The content of GI Capsules was tested for laxative effects, i.e., the effects of the loosening the bowels to relieve constipation, on mouse models for constipation. Healthy Kunming mice were divided randomly into 5 groups, 20 in each group. […] The negative control group consists of 20 mice fed normally and the positive control group 20 mice fed with diphenoxylate at 50 mg/kg BW.
(§2) The test samples were diluted with distilled water into required concentrations and volume of 0.1 ml/10 g BW, and continuously administrated to the mice by oral gavage once a day for 14 days. The mice were fed with normal food during this period. On the last day of administration, mice were kept on fast for 24 hours overnight, but water was given. Then the content of GI Capsules were administered to mice in the three dosage groups by oral gavage. Twenty minutes later, diphenoxylate (50 mg/kg) was administered to all animals except those in the negative control group at the dosage of 0.1 ml/10 g. Ten minutes later, carbon ink (5% carbo activatus, 10% Arabic gum) was administered to all animals by oral gavage at the dosage of […]. All animals in each group were divided into two subgroups, 10 mice in each subgroup. One subgroup in each group was kept for observation of their dejection for 24 hours. The other was killed twenty minutes later and cut open the belly to measure the length of small intestine and the distance between pylorus and the front line of carbon ink to calculate carbon moving rates.

[5] = Body weight of mice in the laxative study; format: in vivo, mouse; conditions: Positive control group (diphenoxylate 50 mg/kg BW)
Description: as §1, §2

## Nc1ccc2cc3ccccc3cc2c1 [2-AA]
[1]; 12 ug
  Ames mutation data TA102 +S9: 1411.00

## O=P1(N(CCCl)CCCl)NCCCO1 (stereo not shown) [CP, cyclophosphamide]
Kunming mice [2]; female mice
  Micronucleus rate, Female: 21.2 ± 2.28 ‰
Kunming mice [2]; female mice, of 5000 PCE
  Micronucleus PCE, Female: 106
Kunming mice [2]; male mice
  Micronucleus rate, Male: 20.6 ± 2.41 ‰
Kunming mice [2]; male mice, of 5000 PCE
  Micronucleus PCE, Male: 103
Kunming mice [3]
  Aberration rate: 20.80 ± 0.98%
Kunming mice [3]; 10 mice, of 10000 sperm
  Aberrant sperm: 2080

## COS(C)(=O)=O [MMS]
[1]; 2 ul
  Ames mutation data TA102 −S9: 2960.00
Salmonella strain TA100
  Ames mutation data TA100 −S9: 1460.00

## CCOC(=O)C1(c2ccccc2)CCN(CCC(C#N)(c2ccccc2)c2ccccc2)CC1 [diphenoxylate]
[4]
  Carbon moving rate: 33.2 ± 10.5%
  First dejection time: 230.6 ± 56.0 min
[4]; 24 hours observation
  Total amounts of dejection: 1.0 ± 0.2 g
  Weight Dung grain: 16.4 ± 3.6 grain
[5]
  Weight 0th day: 19.5 ± 1.2
  Weight 7th day: 25.3 ± 0.9
  Weight 14th day: 29.2 ± 1.4
